One may read the inhibition as the relative decrease from the control value, in per cent. A word on the melting point: it is the temperature of the solid-liquid transition.

The structures appear in SMILES notation. Values after ≈ are worked out from the molar mass of the structure shown.

We go through eleven compounds from paper PMC8976910, “Novel oxadiazole derivatives as potent inhibitors of α-amylase and α-glucosidase enzymes: Synthesis, in vitro evaluation, and molecular docking studies” (Iranian Journal of Basic Medical Sciences, 2021).

For series [1], the system named is 3T3 (mouse fibroblast) cells. Put plainly: MTT assay for cytotoxicity analysis. In kind it is cell-based. As to conditions: for cytotoxic effects against 3T3 (mouse fibroblast) cells, in words: MTT, 1.875-30 µM; for inhibition at 1.875 µM / inhibition at 3.75 µM / inhibition at 7.5 µM / inhibition at 15 µM / inhibition at 30 µM: Mus musculus, NIH3T3, 48 h, 3T3 cells, 48 hr, read-out: % Growth Inhibition. Here is the method: Cytotoxic activity of compounds was evaluated in 96-well flat-bottomed microplates by using the standard MTT (3-[4, 5-dimethylthiazole-2-yl]-2, 5-diphenyl-tetrazolium bromide) colorimetric assay ([34]). For this purpose, 3T3 (mouse fibroblast, ATCC # CRL-1658, Lot # 59049195) cells were cultured in Dulbecco’s Modified Eagle Medium, supplemented with 5% fetal bovine serum (FBS), 100 IU/ml penicillin, and 100 µg/ml streptomycin in 75 cm^2 flasks, and kept in a 5% CO2 incubator at 37 °C. Exponentially growing cells were harvested, counted with a hemocytometer, and diluted with a particular medium. Cell culture with concentration of 5x10^4 cells/ml was prepared and introduced (100 µl/well) into 96-well plates. After overnight incubation, the medium was removed and 200 µl of fresh medium was added with various oxadiazole concentrations (30 µM, 15 µM, 7.5 µM, 3.75 µM, and 1.875 µM). After 48 hr, 200 µl MTT (0.5 mg/ml) was added to each well and incubated further for 4 hr. Subsequently, 100 µl of DMSO was added to each well. The extent of MTT reduction to formazan within cells was calculated by measuring the absorbance at 540 nm, using a microplate reader (Spectra Max Plus, Molecular Devices, CA, USA). The cytotoxicity was recorded as concentration causing 50% growth inhibition (IC50) for 3T3 cells. The percent inhibition was calculated by using the following formula;
% Inhibition=100-((mean of O.D of test compound-mean of O.D of negative control)/ (mean of O.D of positive control - mean of O.D of negative control) *100).
The results (% inhibition) were processed by using SoftMax Pro software (Molecular Device, USA).

Series [2] addresses T1, porcine pancreatic amylase (Sus scrofa, UniProt P00690).
T1 sequence (P00690 16-511): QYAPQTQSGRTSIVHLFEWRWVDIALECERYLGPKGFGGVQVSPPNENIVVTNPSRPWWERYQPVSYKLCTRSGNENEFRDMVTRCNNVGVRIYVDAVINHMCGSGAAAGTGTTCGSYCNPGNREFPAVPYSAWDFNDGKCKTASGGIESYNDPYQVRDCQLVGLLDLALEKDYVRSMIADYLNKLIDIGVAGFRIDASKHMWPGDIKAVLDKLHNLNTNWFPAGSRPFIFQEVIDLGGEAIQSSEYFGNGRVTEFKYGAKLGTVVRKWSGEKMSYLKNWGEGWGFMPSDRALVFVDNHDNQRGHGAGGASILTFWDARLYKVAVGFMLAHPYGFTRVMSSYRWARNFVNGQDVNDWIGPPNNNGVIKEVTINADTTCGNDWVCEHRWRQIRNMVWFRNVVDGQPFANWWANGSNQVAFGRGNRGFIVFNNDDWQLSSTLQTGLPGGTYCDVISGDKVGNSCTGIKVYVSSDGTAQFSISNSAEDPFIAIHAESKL
Put plainly: In vitro alpha-amylase inhibitory activity (starch/DNS, 540 nm). The following applies: for % Inhibition (alpha-amylase): concentration not stated (test compounds 1–100 μg/ml); for IC50: porcine pancreatic amylase, pH 6.8, 25 °C, test compounds 1–100 μg/ml, ± SEM, read-out: IC50 µg/ml ± SEM (alpha-amylase inhibition) (converted). In kind it is biochemical. Here is the method:
To this reaction mixture, 1% starch solution was added (500 μl in 0.2 mM phosphate buffer, pH 6.8) and incubated for an additional 10 min. 1 ml of DNS (di-nitro-salicylic-acid) color reagent was added to arrest the reaction. The reaction mixture was boiled for 10 min and then brought to ambient temperature. The absorbance of the resulting mixture was measured at 540 nm and the inhibitory activity was calculated using the following formula.
% Inhibition =(Astandard -Asample)/Astandard× 100
The IC50 was calculated using non-linear regression plot of % inhibition versus concentrations with the help of GraphPad Prism, version 6.0.

A further series has as its system α-glucosidase. Put plainly: In vitro alpha-glucosidase inhibitory activity (p-NPG, 400 nm). The class given is biochemical. The following applies: for % Inhibition (alpha-glucosidase): concentration not stated (test compounds 1-100 μg/ml); for IC50 µg/ml ± SEM (alpha-glucosidase inhibition): p-NPG substrate, 37 °C, test compounds 1-100 μg/ml. The method, then: The α-glucosidase inhibitory activity was determined according to a previously reported method with slight modifications([19]). […] A 500 μl solution was prepared by adding 10 μl of test compounds (1-100 μg/ml) and 490 μl of phosphate buffer (pH 6.9). 250 μl of 5mM p-nitrophenyl α-d-glucopyranoside (p-NPG) were added to this reaction mixture and incubated for 10 min at 37 °C. […] The α-glucosidase inhibitory activity was calculated as a measure of p-nitrophenol released from p-NPG. […] The percentage inhibition was calculated using the following formula; % Inhibition = (^Astandard^- Asample) / ^Astandard × 100.

Compound `OCCSc1nnc(-c2ccccc2)o1` [Compound 5g, 2-[(5-phenyl-1,3,4-oxadiazol-2-yl)sulfanyl] ethan-1-ol] gave a melting point of 207 to 210 °C. In series [1], the “cytotoxic effects against 3T3 (mouse fibroblast) cells, in words” value is “negligible cytotoxic effects”; the inhibition at 1.875 µM is approximately 1.5%; the inhibition at 3.75 µM was 3%; the inhibition at 7.5 µM stood at 8%. In series [1], the inhibition at 15 µM was 10% and the inhibition at 30 µM was found to be 19.6%. In addition, in series [2], the “% Inhibition (alpha-amylase)” value came to 92.16% and the IC50 was 58.9 µM. Besides, in the series with α-glucosidase, the “% Inhibition (alpha-glucosidase)” value is on record as 36.16% and the “IC50 µg/ml ± SEM (alpha-glucosidase inhibition)” value stood at 80.8 ± 0.52 µg/mL (≈ 364 µM).

On to `OCCN1C[C@H](O)[C@@H](O)[C@H](O)[C@H]1CO` [Miglitol, reference compound], for which, in the series on α-glucosidase, the “% Inhibition (alpha-glucosidase)” value is recorded as 98.9% and the “IC50 µg/ml ± SEM (alpha-glucosidase inhibition)” value was 11.47 ± 0.02 µg/mL (≈ 55.4 µM).

Regarding `OCCSc1nnc(-c2ccccn2)o1` [4a(a), 2-{[5-(pyridin-2-yl)-1,3,4-oxadiazol-2-yl]sulfanyl} ethan-1-ol], in series [2], the “% Inhibition (alpha-amylase)” value is given as 9.42% and the IC50 is 1300 µM. Also, in the series with α-glucosidase, the “% Inhibition (alpha-glucosidase)” value worked out at 97.2% and the “IC50 µg/ml ± SEM (alpha-glucosidase inhibition)” value is 15.45 ± 0.20 µg/mL (≈ 69.2 µM).

As to `OCCSc1nnc(-c2cccnc2)o1` [4a(b), 2-{[5-(pyridin-3-yl)-1,3,4-oxadiazol-2-yl]sulfanyl} ethan-1-ol], in series [2], the “% Inhibition (alpha-amylase)” value came to 26% and the IC50 was 831 µM. Besides, the “IC50 µg/ml ± SEM (alpha-glucosidase inhibition)” value against α-glucosidase was “No effect”.

Turning to `OCCSc1nnc(-c2cccc(Br)c2)o1` [Compound 5d, 2-{[5-(3-bromophenyl)-1,3,4-oxadiazol-2-yl]sulfanyl} ethan-1-ol], the melting point was 186 to 190 °C. Besides, in series [2], the “% Inhibition (alpha-amylase)” value was determined as 43.6% and the IC50 is 298 µM. In the series with α-glucosidase, the “% Inhibition (alpha-glucosidase)” value turned out to be 39.7% and the “IC50 µg/ml ± SEM (alpha-glucosidase inhibition)” value was 73.61 ± 0.02 µg/mL (≈ 244 µM).

The compound `OCCSc1nnc(-c2cccc(I)c2)o1` [Compound 5e, 2-{[5-(3-iodophenyl)-1,3,4-oxadiazol-2-yl]sulfanyl} ethan-1-ol] returned a melting point of 170 °C. Also, in series [2], the “% Inhibition (alpha-amylase)” value was determined as 40.2% and the IC50 is 279 µM. In the series on α-glucosidase, the “% Inhibition (alpha-glucosidase)” value stood at 40.2% and the “IC50 µg/ml ± SEM (alpha-glucosidase inhibition)” value was 68.02 ± 0.43 µg/mL (≈ 195 µM).

`OCCSc1nnc(-c2ccncc2)o1` [4a(c), 2-{[5-(pyridin-4-yl)-1,3,4-oxadiazol-2-yl]sulfanyl} ethan-1-ol] displayed a melting point of 180 °C. In series [2], the “% Inhibition (alpha-amylase)” value worked out at 3.21% and the IC50 is 1770 µM. In the series on α-glucosidase, the “% Inhibition (alpha-glucosidase)” value was 16.3% and the “IC50 µg/ml ± SEM (alpha-glucosidase inhibition)” value amounted to 299.11 ± 0.31 µg/mL (≈ 1340 µM).

Compound `OCCSc1nnc(-c2cc(O)c(O)c(O)c2)o1` [Compound 5f, 5-{5-[(2-hydroxyethyl)sulfanyl]-1,3,4-oxadiazol-2-yl} benzene-1,2,3-triol] displayed a melting point of 265 to 270 °C. For the same compound, in series [2], the “% Inhibition (alpha-amylase)” value is 19.04% and the IC50 was 772 µM. In the series with α-glucosidase, the “% Inhibition (alpha-glucosidase)” value stood at 9.04% and the “IC50 µg/ml ± SEM (alpha-glucosidase inhibition)” value is 273.06 ± 0.04 µg/mL (≈ 1010 µM).

`OCCSc1nnc(-c2ccccc2O)o1` [Compound 5a, 2-{5-[(2-hydroxyethyl)sulfanyl]-1,3,4-oxadiazol-2-yl} phenol] yielded a melting point of 165 to 170 °C. In series [1], the “cytotoxic effects against 3T3 (mouse fibroblast) cells, in words” value is given as “negligible cytotoxic effects”; the inhibition at 1.875 µM came to 3%; the inhibition at 3.75 µM came to 5%; the inhibition at 7.5 µM stood at 12%. Further, in series [1], the inhibition at 15 µM worked out at 16% and the inhibition at 30 µM was 26.2%. Besides, in series [2], the “% Inhibition (alpha-amylase)” value stood at 56.41% and the IC50 was 252 µM. Moreover, in the series with α-glucosidase, the “% Inhibition (alpha-glucosidase)” value came to 98.14% and the “IC50 µg/ml ± SEM (alpha-glucosidase inhibition)” value was 12.27 ± 0.41 µg/mL (≈ 51.5 µM).

Regarding `OCCSc1nnc(-c2ccccc2Cl)o1` [Compound 5c, 2-{[5-(2-chlorophenyl)-1,3,4-oxadiazol-2-yl]sulfanyl} ethan-1-ol], the melting point turned out to be 165 °C. Further, in series [2], the “% Inhibition (alpha-amylase)” value is given as 49.41% and the IC50 is 267 µM. In the series on α-glucosidase, the “% Inhibition (alpha-glucosidase)” value worked out at 40.04% and the “IC50 µg/ml ± SEM (alpha-glucosidase inhibition)” value turned out to be 69.04 ± 0.27 µg/mL (≈ 269 µM).

On to `OCCSc1nnc(-c2ccc(O)cc2)o1` [Compound 5b, 4-{5-[(2-hydroxyethyl)sulfanyl]-1,3,4-oxadiazol-2-yl} phenol], for which, in series [2], the “% Inhibition (alpha-amylase)” value turned out to be 50.11% and the IC50 is 272 µM. Besides, in the series with α-glucosidase, the “% Inhibition (alpha-glucosidase)” value was 41.8% and the “IC50 µg/ml ± SEM (alpha-glucosidase inhibition)” value is 62.01 ± 0.92 µg/mL (≈ 260 µM).
